Results published in publication PMC4859512, “Polyamino-Isoprenic Derivatives Block Intrinsic Resistance of P. aeruginosa to Doxycycline and Chloramphenicol In Vitro” (PLoS ONE, 2016).

System: P. aeruginosa strains over-expressing efflux pumps (PA01, PT629, PA01-ERY^R, PA0-7H, CMZ091, FB1)
Assay: Spotting of logarithmic dilutions on MH agar with antibiotic and compound 3
Type: cell-based, Pseudomonas aeruginosa
Experimental: In a second experiment, 5 μL of logarithmic dilutions of an overnight culture of the 6 strains described in Table 1 were spotted on the MH agar plates prepared as above. An additional assay was also performed with these 6 strains using chloramphenicol as antibiotic instead of doxycycline.
Fig 4 Compound 3 activity against P. aeruginosa strains over-expressing efflux pumps. The ability of bacteria to grow under various conditions was assessed in solid media containing, in a: 2 mg/L doxycycline (left) or a combination of 2 mg/L doxycycline and 10 μM compound 3 (right) and in b: 4 mg/L chloramphenicol (left) or a combination of 4 mg/L chloramphenicol and 10 μM compound 3 (right). 5 μL of logarithmic dilutions of an overnight culture of each strain were spotted on the plates. From top to bottom, PA01, PT629, PA01-ERY^R, PA0-7H, CMZ091 and FB1.

CC(C)=CCCC(C)=CCCC(C)=CCNCCCNCCCCNCCCN [Compound 3]
dilution of overnight culture at which growth was observed (2 μg/mL doxycycline + 10 μM compound 3, PA01 or strains overproducing MexCD or MexEF): 10^−2 | dilution above which no growth was observed (2 μg/mL doxycycline + 10 μM compound 3, all cases): 10^−5 | dilution of overnight culture at which growth was observed (2 μg/mL doxycycline + 10 μM compound 3, cells overproducing MexAB or MexXY): 10^−4 | growth on agar (2 μg/mL doxycycline + 10 μM compound 3, ΔmexB strain): did not grow at any of the dilutions | effect on growth with chloramphenicol (4 mg/L chloramphenicol + 10 μM compound 3, PT629 and PA0-7H): slight effect
